Source: US20220079993A1, “NON-NATURALLY OCCURRING THERMOGENIC ADIPOCYTES, METHODS OF MAKING, AND METHODS OF USE THEREOF” (University of Georgia Research Foundation, Inc., priority 2019, published 2022)
Where a name gives a salt, the structure may show the parent alone. Read-outs that look alike come from different tables or passages of the source.

What was measured:
Format in all cases: cell-based, human
beige adipocytes [1] = assay: Lipolysis validation assays of primary hits at three concentrations; set-up: % of Control (1) / % of Control (2) / % of Control (3) / % of Control (4): unit of the concentration uncertain; conditions: for activity at 2.2 µM: Conc. 2.2 µM; for activity at 6.7 µM: Conc. 6.7 µM; for activity at 20 µM: Conc. 20 µM; for activity at 2200 µM: Conc. 2.2 mM
Description: (§1) ADSCs were seeded at 5000 cell/cm^2 in 12-well plates, grown for 5 days and then induced to differentiate into GC for 20 days. Prior to the assay, cells were washed in DPBS twice and then incubated with DMEM with 2% fatty-acid free BSA (Santa Crus, sc-500949) and Triascin C (5 μM). Cells were treated with forskolin (20 μM) for indicated time periods and supernatant samples were collected. Lipolysis assay was performed with free glycerol reagent (Sigma, F6428-40ML), according to manufacturer instructions.
(§2) Lipolysis assays were performed after 24 hours of drug treatment by measuring free glycerol released in the 384-well format, using the procedure described above. Absorbance for each compound was normalized to untreated control samples for each plate and calculated as a percent of the control. Cut-offs for “activating” and “inhibiting” compounds were set at 2-fold. Validation assays were performed for select compounds at a range of concentration doses.
Next, lipolysis assays were performed for all 111 compounds identified in the primary screen at three different concentrations, of which twenty-four were selected for further analysis based on their newness and/or reproducibility.

UCP1 = assay: Secondary screen, UCP1 transcript levels by qRT-PCR; conditions: secondary screen of primary hits
From the text: FIG. 8A is a scheme used for high-throughput screening (HTS). FIG. 8B is a scatter-plot of glycerol release for each compound assayed (n=3889) in an HTS screen. Data are shown as the percentage of glycerol released compared to untreated beige adipocytes (% of control). FIG. 8C is a computational analysis of preliminary hits identified in the HTS using BiNChE. FIG. 8D is a plot showing the results of a secondary hit validation of primary compounds performed by evaluating levels of UCP1 transcript by qRT-PCR. Unstimulated beige cells, selected adrenergic agonists, and potential new non-adrenergic beige fat activators identified in the primary screen are shown. Transcript levels were normalized to UCP1 levels in ADSCs, n=3 for each technical 20 replicate. *P<0.0.05, **P<0.01, ***P<0.005. FIGS. 8E and 8F are bar graphs showing secondary screening of known thermogenic activators. Transcript levels of UCP1 were assayed in unstimulated ADSCs and ADSC-derived beige adipocytes and following treatment with forskolin (FSK, 20 μM), isoproterenol (1, 10 μM) (8E) and Mirabegron (1, 10 and 25 μM) (8F). Transcript levels were determined by qRT-PCR. n=3 for each independent replicate. Data are mean+/−standard deviation. *P<0.0.05, **P<0.01.
Cells were washed with DPBS, lysed directly on the plate and used for RNA isolation with the E.Z.N.A Total RNA Kit (Omega, R6834-02) according to manufacturer instructions. RNA quantitation was performed with the Biotek Synergy 2 plate reader and cDNA was synthesized using 1 ug of RNA with the iScript cDNA Synthesis Kit (Bio-Rad, 1708841). The qRT-PCR was performed on a ViiA7 Real-Time PCR System (ThermoFisher) using a TaqMan Universal PCR Master Mix (ThermoFisher, 4324020) according to manufacturer instructions with the following TaqMan primer/probe sets (UCP1, Hs01084772_m1), DIO2, Hs00988260_ml, 18S rRNA, Hs03928985_g1). Each assay was performed in triplicate and normalized to 18S rRNA and graphed as mean+/−standard deviation.
To determine if hits identified in the first-round screen activated the thermogenic program, UCP1 transcript levels were used as a readout. This secondary screen incorporated adrenergic agonists, such as Mirabegron, isoproterenol and phenylephrine, and eighteen additional compounds with no reported function in thermogenic regulation (FIG. 8D, 8E, 8F). 18/25 (72%) of the lipolysis-activating compounds identified in the primary screen also activate the thermogenic program through UCP1. Twelve of these compounds have no reported adrenergic agonist activity and could potentially operate through different signaling mechanisms (FIG. 8D and Table 9).

beige adipocytes [2] = assay: High-throughput primary screen, lipolysis assay (glycerol release), 384-well; conditions: 20 μM
Description: as §1, with “Prior to the assay, cells were washed in DPBS twice and then incubated with DMEM with 2% fatty-acid free BSA (Santa Crus, sc-500949) and Triascin C (5 μM).” left out
ADSCs were plated in 384-well plates at a density of 5000 cell/cm2 and grown to confluency over ˜4 days. Cells were then differentiated to beige adipocytes using B-8 medium for 21 days. All cell culture and incubations in the 384-well format were done at 37° C. and 5% CO2. […] The use of FDA-approved drugs may allow for re-purposing for therapeutic use.
as §2

[3] = Homo sapiens, Adipocyte, 24 h, read-out: % of Control (2)
[4] = Homo sapiens, Adipocyte, 24 h, read-out: % of Control (4)
[5] = Homo sapiens, Adipocyte, 24 h, read-out: % of Control (1)
[6] = Homo sapiens, Adipocyte, 24 h, read-out: % of Control (3)

Compound | activity at 2.2 µM (beige adipocytes [1]; [3]) [%] | activity at 2.2 µM (beige adipocytes [1]; [4]) [%] | activity at 6.7 µM (beige adipocytes [1]; [5]) [%] | activity at 6.7 µM (beige adipocytes [1]; [3]) [%] | activity at 6.7 µM (beige adipocytes [1]; [6]) [%] | activity at 6.7 µM (beige adipocytes [1]; [4]) [%] | activity at 20 µM (beige adipocytes [1]; [5]) [%] | activity at 20 µM (beige adipocytes [1]; [3]) [%] | activity at 20 µM (beige adipocytes [1]; [6]) [%] | activity at 20 µM (beige adipocytes [1]; [4]) [%] | activity at 2200 µM (beige adipocytes [1]; [5]) [%] | activity at 2200 µM (beige adipocytes [1]; [6]) [%] | Activation of the thermogenic program (UCP1 transcript), in words (UCP1) | % of Control (1) (beige adipocytes [1]; Conc. 2.2 (unit uncertain)) | % of Control (2) (beige adipocytes [1]; Conc. 2.2 (unit uncertain)) | % of Control (3) (beige adipocytes [1]; Conc. 2.2 (unit uncertain)) | % of Control (4) (beige adipocytes [1]; Conc. 2.2 (unit uncertain)) | % of Control (1) (beige adipocytes [1]; Conc. 6.7 (unit uncertain)) | % of Control (2) (beige adipocytes [1]; Conc. 6.7 (unit uncertain)) | % of Control (3) (beige adipocytes [1]; Conc. 6.7 (unit uncertain)) | further results
O=C1CN2Cc3c(ccc(Cl)c3Cl)N=C2N1 [Anagrelide HCl] | 146 | 144 | 195 | 268 | 191 | 156 | 196 | 183 | 212 | 161 | 125 | 124 | efficacy in beige cell activation | – | – | – | – | – | – | – | –
Cc1ccccc1N1CCN(S(=O)(=O)C[C@]23CC[C@H](C[C@@H]2NC(=O)[C@@H](N)CCS(C)(=O)=O)C3(C)C)CC1 [L-368, 899] | – | – | – | – | – | – | – | – | – | – | – | – | activators in both rounds of screening | 196.9 % of Control | 128 % of Control | 118.57 % of Control | 91.72 % of Control | 185.48 % of Control | 151.88 % of Control | 130.11 % of Control | % of Control (4) (beige adipocytes [1]; Conc. 6.7 (unit uncertain)): 148.51 % of Control; % of Control (1) (beige adipocytes [1]; Conc. 20 (unit uncertain)): 143.81 % of Control; % of Control (2) (beige adipocytes [1]; Conc. 20 (unit uncertain)): 179.29 % of Control; % of Control (3) (beige adipocytes [1]; Conc. 20 (unit uncertain)): 192.97 % of Control; % of Control (4) (beige adipocytes [1]; Conc. 20 (unit uncertain)): 166.21 % of Control
CC1(C)C(=O)N(CCN2CCC(C(=O)c3ccc(F)cc3)CC2)c2ccccc21 [LY-310, 762] | – | – | – | – | – | – | – | – | – | – | – | – | activators in both rounds of screening | 179.4 % of Control | 180.24 % of Control | 180.44 % of Control | 143.79 % of Control | 179.76 % of Control | 199.88 % of Control | 222.09 % of Control | % of Control (4) (beige adipocytes [1]; Conc. 6.7 (unit uncertain)): 289.77 % of Control; % of Control (1) (beige adipocytes [1]; Conc. 20 (unit uncertain)): 264.29 % of Control; % of Control (2) (beige adipocytes [1]; Conc. 20 (unit uncertain)): 223.06 % of Control; % of Control (3) (beige adipocytes [1]; Conc. 20 (unit uncertain)): 225.27 % of Control; % of Control (4) (beige adipocytes [1]; Conc. 20 (unit uncertain)): 201.38 % of Control
Nc1nc(CC(=O)Nc2ccc(CCNC[C@H](O)c3ccccc3)cc2)cs1 [Mirabegron] | 198 | 131 | – | 162 | 168 | 192 | 200 | 211 | 65 | 201 | 142 | 172 | – | – | – | – | – | – | – | – | % Control (relative levels of glycerol release) (beige adipocytes [2]; 24 hours of drug treatment, vs untreated beige adipocytes): 211.65 % control; Outcome in the primary screen (glycerol release), in words (beige adipocytes [2]; 24 hours, cut-offs at 2-fold): efficacy in the HTS; activity at 6700 µM (beige adipocytes [1]; Homo sapiens, Adipocyte, 24 h, Conc. 6.7 mM, read-out: % of Control (1)): 203%
COc1ccc(-c2cc3c(C)nc(N)nc3n([C@H]3CC[C@H](OCCO)CC3)c2=O)cn1 [PF-04691502] | – | – | – | – | – | – | – | – | – | – | – | – | activators in both rounds of screening | 171.55 % of Control | 138.35 % of Control | 232.86 % of Control | 105.98 % of Control | 257.98 % of Control | 216.59 % of Control | 225.05 % of Control | % of Control (4) (beige adipocytes [1]; Conc. 6.7 (unit uncertain)): 155.98 % of Control; % of Control (1) (beige adipocytes [1]; Conc. 20 (unit uncertain)): 304.52 % of Control; % of Control (2) (beige adipocytes [1]; Conc. 20 (unit uncertain)): 224.71 % of Control; % of Control (3) (beige adipocytes [1]; Conc. 20 (unit uncertain)): 171.76 % of Control; % of Control (4) (beige adipocytes [1]; Conc. 20 (unit uncertain)): 302.07 % of Control
Cc1ccc([N+](=O)[O-])cc1S(=O)(=O)N(C)/N=C/c1cnc2ccc(Br)cn12 [PIK-75] | – | – | – | – | – | – | – | – | – | – | – | – | activators in both rounds of screening | 197.74 % of Control | 134.71 % of Control | 183.08 % of Control | 136.9 % of Control | 280.95 % of Control | 197.53 % of Control | 165.05 % of Control | % of Control (4) (beige adipocytes [1]; Conc. 6.7 (unit uncertain)): 207.93 % of Control; % of Control (1) (beige adipocytes [1]; Conc. 20 (unit uncertain)): 158.45 % of Control; % of Control (2) (beige adipocytes [1]; Conc. 20 (unit uncertain)): 244.82 % of Control; % of Control (3) (beige adipocytes [1]; Conc. 20 (unit uncertain)): 198.79 % of Control; % of Control (4) (beige adipocytes [1]; Conc. 20 (unit uncertain)): 233.79 % of Control
CC[C@@H]1C(=O)OC[C@@H]1Cc1cncn1C [Pilocarpine nitrate] | 135 | 89.8 | 220 | 260 | 167 | 84.2 | 200 | 290 | 230 | 181 | 109 | 176 | activators in both rounds of screening | – | – | – | – | – | – | – | –
Cc1cc(C)c(/C=C2\C(=O)Nc3ccccc32)[nH]1 [SU 5416] | 379 | 232 | 349 | 366 | 251 | 238 | 283 | 267 | 233 | 246 | 281 | 214 | activators in both rounds of screening | – | – | – | – | – | – | – | –
COc1cc2c(cc1OC)-c1c/c(=N\c3c(C)cc(C)cc3C)n(C)c(=O)n1CC2 [Trequinsin HCl] | 251 | 244 | 271 | 264 | 232 | 215 | 284 | 292 | 256 | 248 | 240 | 188 | efficacy in beige cell activation | – | – | – | – | – | – | – | –
